“Also recorded” adds a separate entry of the source.
What was measured:
[1] = Extended single-dose toxicity study in mice: general condition, body weight, organ weight; format: in vivo, ICR mice; conditions: for testes organ weight: day 14
Protocol: This study was conducted in compliance with the Animal Experiment Regulations and the Act on Welfare and Management of Animals of the Osaka University Graduate School of Medicine (approval numbers: 04-070 and 04-094). Normal male ICR mice (n = 85, 5–6 weeks old, body weight: 29.4 ± 2.3 g) and cynomolgus monkey (n = 2, body weight: 2.10 and 2.05 kg) were purchased from Japan SLC Inc. (Hamamatsu, Japan) and Hamri Co., Ltd. (Ibaraki, Japan), respectively. The animals were housed under a 12 h light/12 h dark cycle. General condition and body weight were monitored.
(§1) [^211At]PSMA-5 was administered intravenously to 25 mice, and its biodistribution was evaluated. For the toxicity study, three doses of [^211At]PSMA-5 (5, 12, and 35 MBq/kg, single dose) or saline were intravenously administered to 10 mice/group for the main evaluation point on day 1, and 5-mice/group for recovery evaluation on day 14, adhering to the ICH M3 (R2) guidelines. The dosage was determined based on our previous study using [^211At]NaAt. The monkeys were monitored for 24 h post-administration of [^211At]PSMA-5 (9 MBq/kg).
The brain, salivary gland, thyroid, heart, lungs, liver, kidney, adrenal gland, pancreas, spleen, thymus, stomach, small intestine, large intestine, bladder, prostate, and testes were collected on days 1 or 14 in mice and at 24 h in monkeys. Additionally, the pituitary gland, tongue, trachea, esophagus, mesenteric lymph nodes, epididymis, seminal vesicles, skin, mammary glands, spinal cord, bone, bone marrow (femur), eyeball, and optic nerve were collected from the mice. After fixation, paraffin sections were prepared and stained with hematoxylin and eosin (HE). All the specimens were evaluated by an expert in toxic pathology using an integrated fluorescence microscope (BZ-X810; Keyence Corporation. Osaka, Japan). In mice, the brain, salivary glands, heart, lungs, liver, gallbladder, spleen, kidneys, and testes were weighed according to ICH S4 guideline.

[2] = Blood chemistry examination in mice; format: in vivo, ICR mice
Protocol: as §1
A blood cell counter was used for the measurements (CB-1010; ARKRAY, Inc., Kyoto, Japan). Red blood cell count (RBC), hemoglobin concentration (Hb), hematocrit (Ht), white blood cell count (WBC), platelet count (platelet), lymphocytes (%Lymph), monocytes (%Mon), and granulocytes (%Gra) were calculated. Plasma was analyzed using a dry clinical chemistry analyzer (Spotchem D-00 QR D-02; ARKRAY, Inc., Kyoto, Japan). The levels of aspartate aminotransferase (AST), alanine aminotransferase (ALT), gamma-glutamyl transpeptidase (γ-GTP), lactate dehydrogenase (LDH), alkaline phosphatase (ALP), creatine kinase (CK), amylase (AMY), total bilirubin (TBIL), creatinine (CRE), urea nitrogen (BUN), glucose (GLU), total protein (TP), albumin (ALB), total cholesterol (TCHO), triglyceride (TG), and electrolytes (Na, K, and Cl) were measured.

O=C(O)CC[C@H](NC(=O)N[C@@H](CCCCNC(=O)[C@@H](Cc1ccc2ccccc2c1)NC(=O)c1ccc(CNC(=O)[C@@H](CCC(=O)O)NC(=O)[C@@H](CCC(=O)O)NC(=O)Cc2ccc([211At])cc2)cc1)C(=O)O)C(=O)O [[^211At]PSMA-5]
STD10 in human after body surface area conversion ([1]; converted from mice): > 2.8 MBq/kg | body weight compared to the control ([1]; mice, 12 MBq/kg, day 5): significant decrease in body weight | testes organ weight ([1]; mice, 12 MBq/kg): 0.18 ± 0.02 g | body weight compared to the control ([1]; mice, 35 MBq/kg, day 10): significant decrease in body weight | testes organ weight ([1]; mice, 35 MBq/kg): 0.17 ± 0.003 g | severe toxicity or death ([1]; mice, highest dose 35 MBq/kg, 14-day observation): No severe toxicity or death was observed; also recorded: no severe toxicity | STD10 (dose that causes severe toxicity in 10% of test animals) ([1]; mice, single i.v. dose): exceed 35 MBq/kg | ALB ([2]; 5 MBq/kg i.v., day 1): 2.3 ± 0.2 g/dL | ALP ([2]; 5 MBq/kg i.v., day 1): 194 ± 86 IU/L | ALT ([2]; 5 MBq/kg i.v., day 1): 41.2 ± 31.6 IU/L | AMY ([2]; 5 MBq/kg i.v., day 1): 2675 ± 562 IU/L | AST ([2]; 5 MBq/kg i.v., day 1): 43.8 ± 30.3 IU/L | BUN ([2]; 5 MBq/kg i.v., day 1): 22 ± 8.3 mg/dL | CK ([2]; 5 MBq/kg i.v., day 1): 180 ± 60 IU/L | CRE ([2]; 5 MBq/kg i.v., day 1): 0.2 ± 0 mg/dL | GLU ([2]; 5 MBq/kg i.v., day 1): 198 ± 70 mg/dL | K ([2]; 5 MBq/kg i.v., day 1): 4.5 ± 0.5 mEq/L | LDH ([2]; 5 MBq/kg i.v., day 1): 641 ± 281 IU/L | Na ([2]; 5 MBq/kg i.v., day 1): 141 ± 2.5 mEq/L | TBIL ([2]; 5 MBq/kg i.v., day 1): 0.6 ± 0.22 mg/dL | TCHO ([2]; 5 MBq/kg i.v., day 1): 130 ± 20 mg/dL | TG ([2]; 5 MBq/kg i.v., day 1): 112 ± 75 mg/dL | TP ([2]; 5 MBq/kg i.v., day 1): 4.1 ± 0.4 g/dL | γ-GTP ([2]; 5 MBq/kg i.v., day 1): 10 ± 0 IU/L | ALB ([2]; 5 MBq/kg i.v., day 14): 2.2 ± 0.1 g/dL | ALP ([2]; 5 MBq/kg i.v., day 14): 171 ± 36 IU/L | ALT ([2]; 5 MBq/kg i.v., day 14): 16.5 ± 4.9 IU/L | AMY ([2]; 5 MBq/kg i.v., day 14): 2200 ± 428 IU/L | AST ([2]; 5 MBq/kg i.v., day 14): 45 ± 22.7 IU/L | BUN ([2]; 5 MBq/kg i.v., day 14): 27.6 ± 1.1 mg/dL | CK ([2]; 5 MBq/kg i.v., day 14): 162 ± 91 IU/L | CRE ([2]; 5 MBq/kg i.v., day 14): 0.2 ± 0 mg/dL | GLU ([2]; 5 MBq/kg i.v., day 14): 146 ± 39 mg/dL | K ([2]; 5 MBq/kg i.v., day 14): 5.1 ± 1.2 mEq/L | LDH ([2]; 5 MBq/kg i.v., day 14): 611 ± 24 IU/L | Na ([2]; 5 MBq/kg i.v., day 14): 143 ± 1.9 mEq/L | TBIL ([2]; 5 MBq/kg i.v., day 14): 0.88 ± 0.16 mg/dL | TCHO ([2]; 5 MBq/kg i.v., day 14): 151 ± 18 mg/dL | TG ([2]; 5 MBq/kg i.v., day 14): 75 ± 17 mg/dL | TP ([2]; 5 MBq/kg i.v., day 14): 4.1 ± 0.5 g/dL | γ-GTP ([2]; 5 MBq/kg i.v., day 14): 10 ± 0 IU/L | ALB ([2]; 12 MBq/kg i.v., day 1): 2.3 ± 0.2 g/dL | ALP ([2]; 12 MBq/kg i.v., day 1): 193 ± 100 IU/L | ALT ([2]; 12 MBq/kg i.v., day 1): 29.0 ± 5.8 IU/L | AMY ([2]; 12 MBq/kg i.v., day 1): 2666 ± 537 IU/L | AST ([2]; 12 MBq/kg i.v., day 1): 37 ± 11.5 IU/L | BUN ([2]; 12 MBq/kg i.v., day 1): 20.7 ± 8.3 mg/dL | CK ([2]; 12 MBq/kg i.v., day 1): 192 ± 50 IU/L | CRE ([2]; 12 MBq/kg i.v., day 1): 0.2 ± 0 mg/dL | GLU ([2]; 12 MBq/kg i.v., day 1): 185 ± 42 mg/dL | K ([2]; 12 MBq/kg i.v., day 1): 4.5 ± 0.3 mEq/L | LDH ([2]; 12 MBq/kg i.v., day 1): 736 ± 363 IU/L | Na ([2]; 12 MBq/kg i.v., day 1): 142 ± 2.0 mEq/L | TBIL ([2]; 12 MBq/kg i.v., day 1): 0.53 ± 0.16 mg/dL | TCHO ([2]; 12 MBq/kg i.v., day 1): 128 ± 20 mg/dL | TG ([2]; 12 MBq/kg i.v., day 1): 119 ± 75 mg/dL | TP ([2]; 12 MBq/kg i.v., day 1): 4.1 ± 0.3 g/dL | γ-GTP ([2]; 12 MBq/kg i.v., day 1): 10 ± 0 IU/L | ALB ([2]; 12 MBq/kg i.v., day 14): 2.1 ± 0.3 g/dL | ALP ([2]; 12 MBq/kg i.v., day 14): 110 ± 59 IU/L | ALT ([2]; 12 MBq/kg i.v., day 14): 21.5 ± 0.7 IU/L | AMY ([2]; 12 MBq/kg i.v., day 14): 2514 ± 549 IU/L | AST ([2]; 12 MBq/kg i.v., day 14): 28.8 ± 15.4 IU/L | BUN ([2]; 12 MBq/kg i.v., day 14): 30.6 ± 6.1 mg/dL | CK ([2]; 12 MBq/kg i.v., day 14): 144 ± 26 IU/L | CRE ([2]; 12 MBq/kg i.v., day 14): 0.22 ± 0.04 mg/dL | GLU ([2]; 12 MBq/kg i.v., day 14): 148 ± 24 mg/dL | K ([2]; 12 MBq/kg i.v., day 14): 5.4 ± 0.8 mEq/L | LDH ([2]; 12 MBq/kg i.v., day 14): 456 ± 72 IU/L | Na ([2]; 12 MBq/kg i.v., day 14): 143 ± 2.8 mEq/L | TBIL ([2]; 12 MBq/kg i.v., day 14): 0.68 ± 0.13 mg/dL | TCHO ([2]; 12 MBq/kg i.v., day 14): 138 ± 20 mg/dL | TG ([2]; 12 MBq/kg i.v., day 14): 87 ± 42 mg/dL | TP ([2]; 12 MBq/kg i.v., day 14): 3.9 ± 0.4 g/dL | γ-GTP ([2]; 12 MBq/kg i.v., day 14): 10 ± 0 IU/L | ALB ([2]; 35 MBq/kg i.v., day 1): 2.2 ± 0.1 g/dL | ALP ([2]; 35 MBq/kg i.v., day 1): 208 ± 67 IU/L | ALT ([2]; 35 MBq/kg i.v., day 1): 53.0 ± 10.3 IU/L | AMY ([2]; 35 MBq/kg i.v., day 1): 2795 ± 363 IU/L | BUN ([2]; 35 MBq/kg i.v., day 1): 19.6 ± 6.2 mg/dL | CK ([2]; 35 MBq/kg i.v., day 1): 170 ± 65 IU/L | CRE ([2]; 35 MBq/kg i.v., day 1): 0.2 ± 0 mg/dL | GLU ([2]; 35 MBq/kg i.v., day 1): 201 ± 31 mg/dL | K ([2]; 35 MBq/kg i.v., day 1): 5.1 ± 0.5 mEq/L | LDH ([2]; 35 MBq/kg i.v., day 1): 638 ± 385 IU/L | Na ([2]; 35 MBq/kg i.v., day 1): 140 ± 1.4 mEq/L | TBIL ([2]; 35 MBq/kg i.v., day 1): 0.71 ± 0.48 mg/dL | TCHO ([2]; 35 MBq/kg i.v., day 1): 129 ± 21 mg/dL | TG ([2]; 35 MBq/kg i.v., day 1): 122 ± 79 mg/dL | TP ([2]; 35 MBq/kg i.v., day 1): 4.0 ± 0.3 g/dL | γ-GTP ([2]; 35 MBq/kg i.v., day 1): 10 ± 0 IU/L | AST ([2]; 35 MBq/kg i.v., day 1, hemolysis was observed): 51.5 ± 36.2 IU/L | ALB ([2]; 35 MBq/kg i.v., day 14): 2.3 ± 0.1 g/dL | ALP ([2]; 35 MBq/kg i.v., day 14): 133 ± 46 IU/L | ALT ([2]; 35 MBq/kg i.v., day 14): 13.0 ± 0.0 IU/L | AMY ([2]; 35 MBq/kg i.v., day 14): 2678 ± 388 IU/L | AST ([2]; 35 MBq/kg i.v., day 14): 28.4 ± 9.9 IU/L | BUN ([2]; 35 MBq/kg i.v., day 14): 23.4 ± 3.4 mg/dL | CK ([2]; 35 MBq/kg i.v., day 14): 141 ± 18 IU/L | CRE ([2]; 35 MBq/kg i.v., day 14): 0.2 ± 0 mg/dL | GLU ([2]; 35 MBq/kg i.v., day 14): 141 ± 21 mg/dL | K ([2]; 35 MBq/kg i.v., day 14): 4.7 ± 0.6 mEq/L | LDH ([2]; 35 MBq/kg i.v., day 14): 538 ± 129 IU/L | Na ([2]; 35 MBq/kg i.v., day 14): 143 ± 2.6 mEq/L | TBIL ([2]; 35 MBq/kg i.v., day 14): 0.68 ± 0.33 mg/dL | TCHO ([2]; 35 MBq/kg i.v., day 14): 144 ± 15 mg/dL | TG ([2]; 35 MBq/kg i.v., day 14): 67 ± 18 mg/dL | TP ([2]; 35 MBq/kg i.v., day 14): 4.1 ± 0.2 g/dL | γ-GTP ([2]; 35 MBq/kg i.v., day 14): 10 ± 0 IU/L
